In the test the target is human IDO1 (Homo sapiens, UniProt P14902). Description: Assessment of human IDO-1 inhibitory activity in Hela cells (Interferon-gamma stimulated HeLa cells, Ehrlich reagent, absorbance 490 nm). It counts as cell-based. On the set-up: endogenous in cells; host or cells: HeLa cells stimulated with interferon-gamma. The note with it: Hela Human IDO-1 cellular assay. The procedure, abridged:
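HeLa cells pre-incubated with compound 1 h at 37 °C, then stimulated with human IFN-γ (10 ng/ml final) or murine IFN-γ (5 ng/ml final) for 18 h. Kynurenine read with Ehrlich reagent at 490 nm after TCA (3%) and 50 °C treatment; IC50 normalized to unstimulated (100%) and IFN-γ-only (0%) wells.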
Sequence of human IDO1 (P14902 whole entry): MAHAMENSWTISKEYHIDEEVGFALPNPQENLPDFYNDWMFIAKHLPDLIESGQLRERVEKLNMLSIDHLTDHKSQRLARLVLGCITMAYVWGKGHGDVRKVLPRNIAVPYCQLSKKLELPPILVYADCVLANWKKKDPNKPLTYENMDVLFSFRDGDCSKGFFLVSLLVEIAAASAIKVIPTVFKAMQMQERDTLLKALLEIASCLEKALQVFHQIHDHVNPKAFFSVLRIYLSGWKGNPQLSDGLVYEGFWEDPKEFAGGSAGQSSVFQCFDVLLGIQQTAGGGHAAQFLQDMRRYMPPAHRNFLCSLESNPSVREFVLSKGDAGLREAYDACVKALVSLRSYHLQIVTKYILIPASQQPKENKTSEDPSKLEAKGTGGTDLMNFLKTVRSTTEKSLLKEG
Consider `CCC1COCCN1c1ccc([C@@H](COC)CC(=O)O)cc1Nc1cnc(OC)nc1` (single isomer, unassigned) [Example 1284], for which the 50% inhibitory concentration (IC50) (commonly the point on the concentration scale where inhibition reaches its midpoint) was greater than 50 nM. `CCN(c1c(F)cc(C(COC)CC(=O)O)cc1NC(=O)Nc1ccc(Cl)cc1F)C1CCOCC1` (single isomer, unassigned) [Example 919, 3-(3-(3-(4-Chloro-2-fluorophenyl)ureido)-4-(ethyl(tetrahydro-2H-pyran-4-yl)amino)-5-fluorophenyl)-4-methoxybutanoic acid]: the 50% inhibitory concentration (IC50) is greater than 50 nM. As for `CCN(c1ccc([C@@H](COC)CC(=O)O)cc1Nc1ncc(Cl)cn1)C1CCOCC1` (single isomer, unassigned) [Example 357], the IC50 is less than 50 nM. `CCCN(c1ccc(C(CC)CC(=O)O)cc1NC(=O)Nc1ccc(C)cc1)C1CCS(=O)(=O)CC1` (single isomer, unassigned) [Example 14 Enantiomer 1, 3-(4-((1,1-Dioxidotetrahydro-2h-thiopyran-4-yl)(propyl)amino)-3-(3-(p-tolyl)ureido)phenyl)pentanoic acid] registered a 50% inhibitory concentration (IC50) greater than 50 nM. Turning to `CCC(CC(=O)O)c1cc(Nc2ccc(C#N)cn2)c(N(CC)C2CCOCC2)cc1F` (single isomer, unassigned) [Example 862, 3-(5-((5-cyanopyridin-2-yl)amino)-4-(ethyl (tetrahydro-2H-pyran-4-yl)amino)-2-fluorophenyl) pentanoic acid], the IC50 is less than 5 nM.

Turning to `CCN(c1ccc(C(CC(=O)O)C2CC2)cc1Nc1ccc(Cl)cc1)C1CCOCC1` (single isomer, unassigned) [Example 33 Enantiomer 1, 3-(3-((4-Chlorophenyl)amino)-4-(ethyl(tetrahydro-2H-pyran-4-yl)amino)phenyl)-3-cyclopropylpropanoic acid], the 50% inhibitory concentration (IC50) was less than 5 nM. For `CC[C@H](CC(=O)O)c1ccc(N(CC)C2CCOCC2)c(Nc2cnc(N(C)C)nc2)c1` (single isomer, unassigned) [Example 502], the half-inhibitory concentration (IC50) was less than 50 nM.

For the compound `COCC(CC(=O)O)c1ccc(NC2CCOCC2)c(Nc2ccc(C#N)cc2)c1` (single isomer, unassigned) [Example 928 E1, 3-(3-((4-Cyanophenyl)amino)-4-((tetrahydro-2H-pyran-4-yl)amino)phenyl)-4-methoxybutanoic acid], the IC50 is greater than 50 nM. As for `COCC(CC(=O)O)c1ccc(N2CCC(c3ccccc3)CC2)c(NC(=O)Nc2ccc(Cl)cc2F)c1` (single isomer, unassigned) [Example 1357 E1, 3-(3-(3-(4-Chloro-2-fluorophenyl)ureido)-4-(4-phenylpiperidin-1-yl)phenyl)-4-methoxybutanoic acid], the concentration for half-maximal inhibition (IC50) is greater than 50 nM. `CC(CC(=O)O)c1ccc(N2C[C@@H](C)O[C@@H](C)C2)c(NC(=O)Nc2ccc(C#N)cc2)c1` (single isomer, unassigned) [Example 750] showed an IC50 greater than 50 nM. Compound `CCC1COCCN1c1ccc([C@@H](COC)CC(=O)O)cc1Nc1ccc(Cl)cc1` (single isomer, unassigned) [Example 1300] registered a 50% inhibitory concentration (IC50) of less than 50 nM. `CCOc1ncc(Nc2cc([C@H](CC)CNS(=O)(=O)c3c(C)noc3C)ccc2N(CC)C2CCOCC2)cn1` [Example 1328, (S)-N-(2-(3-((2-ethoxypyrimidin-5-yl)amino)-4-(ethyl(tetrahydro-2H-pyran-4-yl)amino)phenyl)butyl)-3,5-dimethylisoxazole-4-sulfonamide] registered an IC50 greater than 50 nM. On to `CCCN(c1ccc(C(C)(C)CC(=O)O)cc1Nc1ccc(C#N)cc1)C1CCS(=O)(=O)CC1` [Example 187, 3-(3-((4-Cyanophenyl)amino)-4-((1,1-dioxidotetrahydro-2H-thiopyran-4-yl)(propyl)amino)phenyl)-3-methylbutanoic acid], for which the half-inhibitory concentration (IC50) was less than 50 nM. The value for `COCC(CC(=O)O)c1ccc(N2CCOC[C@H]2C(C)C)c(Nc2ccc(Cl)cc2)c1` (single isomer, unassigned) [Example 913] was less than 5 nM. Take `CCC1COCCN1c1ccc([C@@H](COC)CC(=O)O)cc1Nc1ccc(F)cc1` (single isomer, unassigned) [Example 1301]: the half-inhibitory concentration (IC50) is greater than 50 nM.

`CC[C@@H](CC(=O)O)c1ccc(N(CC)C2CCOCC2)c(Nc2cnc(OC)cn2)c1` (single isomer, unassigned) [Example 464]: the IC50 is less than 5 nM. `CCC(CC(=O)O)c1ccc(N(CCOC)C2CCOCC2)c(Nc2ccc(C#N)cc2)c1` (single isomer, unassigned) [Example 1258, 3-(3-((4-cyanophenyl)amino)-4-((2-methoxyethyl)(tetrahydro-2H-pyran-4-yl)amino)phenyl)pentanoic acid] returned a 50% inhibitory concentration (IC50) of less than 5 nM.

Consider `CCN(c1ccc(C2(CC(=O)O)CCOCC2)cc1Nc1ccc(C#N)cc1)C1CCOCC1` [Example 154, 2-(4-(3-((4-cyanophenyl)amino)-4-(ethyl (tetrahydro-2H-pyran-4-yl)amino)phenyl)tetrahydro-2H-pyran-4-yl)acetic acid], for which the IC50 is less than 50 nM. As to `CCCN(c1ccc([C@H](COC)CC(=O)O)cc1Nc1ccc(F)cc1)C1CCOCC1` (single isomer, unassigned) [Example 572], the IC50 is less than 50 nM. `C[C@@H]1CN(c2ccc(C(CC(=O)O)C3CC3)cc2NC(=O)Nc2ccc(Cl)cc2F)C[C@H](C)O1` (single isomer, unassigned) [Example 252] gave a half-inhibitory concentration (IC50) greater than 50 nM. On to `CCC(CC(=O)O)c1cc(F)c(N(CC)C2CCOCC2)c(Nc2ccc(Cl)cc2)c1` (single isomer, unassigned) [Example 133, 3-(3-((4-Chlorophenyl)amino)-4-(ethyl(tetrahydro-2H-pyran-4-yl)amino)-5-fluorophenyl)pentanoic acid], for which the 50% inhibitory concentration (IC50) was less than 5 nM.

The compound `CCC(CC(=O)O)c1cc(F)c(N(CC)C2CCOCC2)c(Nc2ccc(OC)nc2)c1` (single isomer, unassigned) [Example 142, 3-(4-(ethyl(tetrahydro-2H-pyran-4-yl)amino)-3-fluoro-5-((6-methoxypyridin-3-yl)amino)phenyl) pentanoic acid] yielded an IC50 of less than 5 nM. Compound `COCC(CC(=O)O)c1ccc(N2C[C@@H](C)O[C@@H](C)C2)c(NC(=O)Nc2ccc(C#N)cc2)c1` (single isomer, unassigned) [Example 605 Diastereomer 1] yielded an IC50 greater than 50 nM. For the compound `CCN(c1ccc([C@@H](COC)CC(=O)O)cc1Nc1ncc(F)cc1F)C1CCOCC1` (single isomer, unassigned) [Example 358], the half-maximal inhibitory concentration (IC50) was less than 50 nM. Turning to `Cc1ccc(NC(=O)Nc2cc(C(CC(=O)O)C3CC3)ccc2N2C[C@@H](C)O[C@@H](C)C2)cc1` (single isomer, unassigned) [Example 251 Enantiomer 1], the half-maximal inhibitory concentration (IC50) was greater than 50 nM. Turning to `CC(CC(=O)O)c1ccc(N2C[C@@H](C)O[C@@H](C)C2)c(NC(=O)Nc2ccc(Cl)cc2F)c1` (single isomer, unassigned) [Example 749 Enantiomer 1], the 50% inhibitory concentration (IC50) is greater than 50 nM.

On to `CCC1COCCN1c1ccc([C@H](COC)CC(=O)O)cc1Nc1ccc(C#N)c(F)c1` (single isomer, unassigned) [Example 1304], for which the half-maximal inhibitory concentration (IC50) is less than 50 nM. As for `COCC(CC(=O)O)c1ccc(N2CCOC(C)(C)C2)c(NC(=O)Nc2ccc(Cl)cc2F)c1` (single isomer, unassigned) [Example 1318 E1, 3-(3-(3-(4-Chloro-2-fluorophenyl)ureido)-4-(2,2-dimethylmorpholino)phenyl)-4-methoxybutanoic acid], the IC50 was greater than 50 nM.

Source of the values: patent publication US9790169B2, “IDO inhibitors” (BRISTOL-MYERS SQUIBB COMPANY, priority 2015, dated 2017).
